Results from the NIST ThermoML archive (doi:10.1016/j.fluid.2008.09.004).
Numbers after ± are expanded uncertainties.

Key:
[1] = 101.33 kPa, Liquid; for mass density: Vibrating tube method; for speed of sound: Sing-around technique in a fixed-path interferometer
[2] = molar heat capacity at constant pressure; conditions: 101.33 kPa, Liquid, Small sample (50 mg) DSC
[3] = excess molar enthalpy (molar enthalpy of mixing); xn = mol fraction of the nth substance listed; conditions: 303.15 K, 101 kPa, Liquid, Calvet calorimetry

Compound	mass density ([1]; 293.15 K) [kg/m3]	mass density ([1]; 298.15 K) [kg/m3]	mass density ([1]; 303.15 K) [kg/m3]	mass density ([1]; 308.15 K) [kg/m3]	mass density ([1]; 313.15 K) [kg/m3]	mass density ([1]; 318.15 K) [kg/m3]	molar heat capacity at constant pressure ([2]; 293.15 K) [J/K/mol]	molar heat capacity at constant pressure ([2]; 298.15 K) [J/K/mol]	molar heat capacity at constant pressure ([2]; 303.15 K) [J/K/mol]	molar heat capacity at constant pressure ([2]; 308.15 K) [J/K/mol]	molar heat capacity at constant pressure ([2]; 313.15 K) [J/K/mol]	molar heat capacity at constant pressure ([2]; 318.15 K) [J/K/mol]	speed of sound ([1]; 293.15 K) [m/s]	speed of sound ([1]; 298.15 K) [m/s]	speed of sound ([1]; 303.15 K) [m/s]	speed of sound ([1]; 308.15 K) [m/s]	speed of sound ([1]; 313.15 K) [m/s]	speed of sound ([1]; 318.15 K) [m/s]	also measured
CCCCn1cc[n+](C)c1.COS(=O)(=O)[O-] [1-butyl-3-methylimidazolium methyl sulfate]	1210.7 ± 0.4	1207.4 ± 0.4	1204.1 ± 0.4	1200.8 ± 0.4	1197.5 ± 0.4	1194.2 ± 0.4	413.7 ± 6.4	416.2 ± 6.4	418.5 ± 6.5	420.9 ± 6.5	423.3 ± 6.6	425.6 ± 6.6							
CCCCn1cc[n+](C)c1.F[B-](F)(F)F [1-butyl-3-methylimidazolium tetrafluoroborate]	1207.6 ± 0.4	1204.1 ± 0.4	1200.5 ± 0.4	1197 ± 0.4	1193.4 ± 0.4	1189.9 ± 0.4	359.8 ± 5.6	363.1 ± 5.6	366.1 ± 5.7	368.7 ± 5.7	371 ± 5.7	372.9 ± 5.8							
CCCCn1cc[n+](C)c1.O=S(=O)([O-])C(F)(F)F [1-butyl-3-methylimidazolium trifluoromethanesulfonate]	1301.6 ± 0.5	1297.6 ± 0.5	1293.7 ± 0.5	1289.7 ± 0.5	1285.8 ± 0.5	1281.9 ± 0.5	421.6 ± 6.5	424.1 ± 6.6	426.7 ± 6.6	429.5 ± 6.7	432.4 ± 6.7	435.5 ± 6.7	1403.4 ± 1.3	1392.1 ± 1.3	1380.9 ± 1.3	1369.8 ± 1.3	1358.8 ± 1.3	1348.1 ± 1.3	
CCCC[n+]1cccc(C)c1.F[B-](F)(F)F [1-butyl-3-methylpyridinium tetrafluoroborate]													1599.8 ± 1.4	1587 ± 1.4	1574.8 ± 1.4	1562.6 ± 1.4	1550.7 ± 1.4	1538.9 ± 1.4	
CCCC[n+]1cccc(C)c1.F[B-](F)(F)F [1-butyl-3-methylpyridinium tetrafluoroborate] + CCO																			excess molar enthalpy ([3]; x1 = 0.0306): 0.132 ± 0.0108 kcal/mol; excess molar enthalpy ([3]; x1 = 0.1031): 0.324 ± 0.0263 kcal/mol; excess molar enthalpy ([3]; x1 = 0.1976): 0.483 ± 0.0382 kcal/mol; excess molar enthalpy ([3]; x1 = 0.3036): 0.588 ± 0.0478 kcal/mol; excess molar enthalpy ([3]; x1 = 0.3966): 0.621 ± 0.0502 kcal/mol; excess molar enthalpy ([3]; x1 = 0.5083): 0.596 ± 0.0478 kcal/mol; excess molar enthalpy ([3]; x1 = 0.6001): 0.535 ± 0.043 kcal/mol; excess molar enthalpy ([3]; x1 = 0.692): 0.45 ± 0.0359 kcal/mol; excess molar enthalpy ([3]; x1 = 0.8061): 0.301 ± 0.0239 kcal/mol; excess molar enthalpy ([3]; x1 = 0.8847): 0.187 ± 0.0151 kcal/mol
CCOS(=O)(=O)[O-].CCn1cc[n+](C)c1 [1-ethyl-3-methylimidazolium ethyl sulfate]	1240.6 ± 0.4	1237.2 ± 0.4	1233.8 ± 0.4	1230.4 ± 0.4	1227 ± 0.4	1223.7 ± 0.4	392.2 ± 6.1	394.4 ± 6.1	396.8 ± 6.1	399.3 ± 6.2	402 ± 6.2	404.9 ± 6.3							
CCn1cc[n+](C)c1.O=S(=O)([O-])C(F)(F)F [1-ethyl-3-methylimidazolium trifluoromethanesulfonate]	1389.5 ± 0.6	1385.3 ± 0.6	1381.1 ± 0.6	1376.9 ± 0.6	1372.7 ± 0.6	1368.6 ± 0.6	361.1 ± 5.6	363.2 ± 5.6	365.3 ± 5.7	367.4 ± 5.7	369.6 ± 5.7	371.8 ± 5.8							
CCCCCCn1cc[n+](C)c1.F[B-](F)(F)F [1-hexyl-3-methylimidazolium tetrafluoroborate]	1148.8 ± 0.4	1145.3 ± 0.4	1141.8 ± 0.4	1138.4 ± 0.4	1135 ± 0.4	1131.6 ± 0.4	425.1 ± 6.6	427.8 ± 6.6	430.4 ± 6.7	433 ± 6.7	435.5 ± 6.7	438.1 ± 6.8	1532.7 ± 1.4	1519.5 ± 1.4	1506.9 ± 1.4	1494.5 ± 1.4	1482.3 ± 1.4	1470.5 ± 1.4	
CCO [ethanol]	789.6 ± 0.2	785.3 ± 0.2	781 ± 0.2	776.7 ± 0.2	772.3 ± 0.2	767.8 ± 0.2	111.3 ± 1.7	113.3 ± 1.8	115.3 ± 1.8	117.5 ± 1.8	119.7 ± 1.9	122.1 ± 1.9	1159.5 ± 0.8	1142.5 ± 0.8	1125.5 ± 0.8	1108.6 ± 0.8	1091.8 ± 0.8	1075.1 ± 0.7	
